# Reference: US10807993B2, “Dihydrochromene derivatives” (Sumitomo Dainippon Pharma Co., Ltd., priority 2018, dated 2020)
# Where two headings read alike, the source gives them in different places.
# Columns and labels:
# HT-29 cells = assay: Inhibition test for sphere formation assay of cancer cells; type: cell-based; conditions: for IC50: sphere culture (ultra-low attachment, serum-free), 4 days, CellTiter-Glo, read-out: Sphere IC50 value (concentration for 50% inhibition of cell proliferation); for activity for inhibiting cell proliferation in the sphere culture condition: summary in words
# Experimental: Reliable methods established for measuring the self-renewal ability of cells which is one of the CSC's properties include a method for measuring the sphere-forming ability of cancer cells in non-adherent condition in the absence of serum (Cancer Res 65, 5506-5511 (2005)). HT-29 cells were available from American Type Culture Collection (ATCC). HT-29 cells were cultured at 37° C. under 5% CO2 using the McCoy's 5a medium containing 10% fetal bovine serum (FBS) and 1% penicillin/streptomycin. HT-29 cells were seeded in a 384 Well Black Clear Bottom Ultra-Low Attachment Microplate (Corning Cat. No. 3827) in an amount of 350-800 cells/well using the DMEM/F12 medium containing 2% B27 supplement (GIBCO), 20 ng/mL epidermal growth factor (EGF) (peprotech), 10 ng/mL basic fibroblast growth factor (bFGF) (peprotech), 5 μg/mL insulin (Sigma), and 1% penicillin/streptomycin. Each test compound was added into each well to adjust the final concentration of DMSO to 0.1%, and the cells were cultured for 4 days. The number of viable cells in each well was then measured with CellTiter-Glo™ Luminescent Cell Viability Assay (Promega) to calculate the concentration of each test compound for 50% inhibition of cell proliferation (Sphere IC50 value; […])
# The experiment of Test 1 was performed for each compound of each Example. The concentration of each test compound for 50% inhibition of cell proliferation (Sphere IC50 value; μmol/L) is shown in the following Table.
# hERG [1] = biological target: T1, hERG (Homo sapiens (Human), UniProt Q12809)
# T1 sequence (Q12809 whole entry): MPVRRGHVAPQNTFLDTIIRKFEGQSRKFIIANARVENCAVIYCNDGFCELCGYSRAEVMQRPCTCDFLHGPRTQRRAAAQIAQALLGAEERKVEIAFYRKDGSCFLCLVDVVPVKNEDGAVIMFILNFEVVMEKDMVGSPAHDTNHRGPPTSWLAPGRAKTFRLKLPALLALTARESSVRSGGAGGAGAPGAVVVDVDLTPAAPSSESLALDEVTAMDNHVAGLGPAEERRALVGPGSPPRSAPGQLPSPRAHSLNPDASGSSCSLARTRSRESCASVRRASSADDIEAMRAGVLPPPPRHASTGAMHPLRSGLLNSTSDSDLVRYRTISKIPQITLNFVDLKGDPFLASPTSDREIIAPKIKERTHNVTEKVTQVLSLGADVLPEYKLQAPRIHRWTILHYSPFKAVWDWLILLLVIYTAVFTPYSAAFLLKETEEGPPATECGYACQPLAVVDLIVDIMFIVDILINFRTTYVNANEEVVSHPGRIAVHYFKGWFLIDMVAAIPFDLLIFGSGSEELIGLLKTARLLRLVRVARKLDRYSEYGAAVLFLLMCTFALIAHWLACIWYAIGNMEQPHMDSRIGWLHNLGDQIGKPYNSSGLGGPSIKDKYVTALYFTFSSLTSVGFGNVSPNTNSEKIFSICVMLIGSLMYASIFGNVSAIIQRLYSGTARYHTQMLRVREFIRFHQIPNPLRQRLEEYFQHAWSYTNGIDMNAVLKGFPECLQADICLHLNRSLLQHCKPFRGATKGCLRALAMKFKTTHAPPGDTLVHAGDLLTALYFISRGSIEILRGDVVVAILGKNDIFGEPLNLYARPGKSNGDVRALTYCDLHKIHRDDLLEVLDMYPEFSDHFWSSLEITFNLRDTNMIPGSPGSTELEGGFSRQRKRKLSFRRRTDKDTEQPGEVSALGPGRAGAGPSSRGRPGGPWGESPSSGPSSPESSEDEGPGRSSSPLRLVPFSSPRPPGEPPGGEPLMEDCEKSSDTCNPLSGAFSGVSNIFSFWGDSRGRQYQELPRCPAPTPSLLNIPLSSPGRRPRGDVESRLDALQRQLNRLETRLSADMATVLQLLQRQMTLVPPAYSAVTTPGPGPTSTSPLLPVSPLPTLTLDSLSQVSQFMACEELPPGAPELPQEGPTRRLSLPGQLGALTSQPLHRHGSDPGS
# Experimental: (§1) To a cultured CHO cell strain which stably expresses hERG was added each test compound to adjust the final concentration of DMSO to 0.0135 to 0.5%. The hERG current was measured with QPatch HT (Sophion Inc.), and the concentration at which 50% of the hERG current was inhibited by each test compound (IC50 value; μM) was calculated.
# (§2) The compounds of Examples were tested according to Test 2. And, the hERG/HT-29 was calculated by dividing the compound concentration obtained in Test 2 (50% of the hERG current is inhibited) by the compound concentration obtained in Test 1 (50% of the proliferation of HT-29 cells is inhibited).
# hERG [2] = biological target: T1, hERG; assay: Test for evaluating hERG inhibition (QPatch HT, CHO cell strain stably expressing hERG); conditions: for hERG/HT-29: hERG IC50 (Test 2) divided by HT-29 sphere IC50 (Test 1); for deviation between the concentration of inhibiting 50% cell proliferation and the concentration of inhibiting 50% hERG current: summary in words of hERG/HT-29
# Experimental: as §1, §2
# [3] = read-out: Binding inhibition (IC50, μM), concentration at which 50% of the hERG current was inhibited, CHO cells stably expressing hERG, QPatch HT
IC50 (HT-29 cells) [nM],SMILES,IC50 (hERG [1]) [nM],hERG/HT-29 (hERG [1]),activity for inhibiting cell proliferation in the sphere culture condition (HT-29 cells),"IC50 (HT-29 cells; Homo sapiens, 96 h) [nM]",IC50 (hERG [2]) [µM],hERG/HT-29 (hERG [2]),IC50 (hERG [2]; [3]) [µM],deviation between the concentration of inhibiting 50% cell proliferation and the concentration of inhibiting 50% hERG current (hERG [2])
400,Cc1c(CO)ncn1CC(=O)N1CCC2(CC1)COC1c3cc(Cl)ccc3OC(C)(C)C1C2 (centres unmarked) [Example 14],300,0.75,,,,,,
< 10,Cc1nccn1CCN1CCC2(CC1)COC1c3cc(F)ccc3OC(C)(C)C1C2 (centres unmarked) [Example 45],400,>40,potent activity,,,,,
4090,CC1(C)Oc2ccc(N=[N+]=[N-])cc2C2OCC3(CCN(C(=O)Cn4ccnc4C#N)CC3)CC21 (centres unmarked) [Example 11],4900,1.20,,,,,,
70,CC1(C)Oc2ccc(Cl)cc2C2OCC3(CCN(CCn4ccnc4C#N)CC3)CC21 (centres unmarked) [Example 58],1900,27.1,,,,,,
,"Cc1nc[nH]c1CN1CCC2(CC1)COC1c3ccc(Cl)cc3OCC1C2 (racemic) [Example 64, Racemate of (4′aS,10′bR)-8′-chloro-1-[(4-methyl-1H-imidazol-5-yl)methyl]-4′a,10′b-dihydro-2′H,4′H,5′H-spiro[piperidine-4,3′-pyrano[3,2-c][1]benzopyran] and (4′aR,10′bS)-8′-chloro-1-[(4-methyl-H-imidazol-5-yl)methyl]-4′a,10′b-dihydro-2′H,4′H,5′H-spiro[piperidine-4,3′-pyrano[3,2-c][1]benzopyran]]",,,,70,0.4,5.71,,
2280,Cc1nc(CN2CCC3(CC2)COC2c4cc(Cl)ccc4OC(C)(C)C2C3)c[nH]1 (centres unmarked) [Example 30],,,,,,7.46,1.7,
240,Cc1nccn1CC(=O)N1CCC2(CC1)COC1c3cc(F)ccc3OC(C)(C)C1C2 (centres unmarked) [Example 2],,,,,,,< 0.3,
< 10,"Cc1nc[nH]c1CN1CCC2(CC1)COC1c3ccc(Cl)cc3OCC1C2 (single isomer, unassigned) [Example 64a]",,,potent activity,,,>60,0.6,good deviation
210,CC1(C)Oc2ccc(Cl)cc2C2OCC3(CCN(Cc4ncc[nH]4)CC3)CC21 (centres unmarked) [Example 35],,,,,,16.7,3.5,
50,"Cc1nc[nH]c1CN1CCC2(CC1)COC1c3ccc(Cl)cc3OCC1C2 (single isomer, unassigned) [Example 64b]",,,,,,,< 0.3,
770,Cc1nccn1CC(=O)N1CCC2(CC1)COC1c3cccc(Br)c3OC(C)(C)C1C2 (centres unmarked) [Example 9],,,,,,,< 0.3,
< 10,CC1(C)Oc2cc(Cl)ccc2C2OCC3(CCN(CCn4ccnc4CO)CC3)CC21 (centres unmarked) [Example 54],,,potent activity,,,>140,1.4,good deviation
410,Cc1nccn1CC(=O)N1CCC2(CC1)COC1c3ccc(Cl)cc3OC(C)(C)C1C2 (centres unmarked) [Example 5],,,,,,,< 0.3,
,"Cc1nc[nH]c1CN1CCC2(CC1)COC1c3ccc(Cl)cc3OC(C)(C)C1C2 (racemic) [Example 18, Racemate of (4′aR,10′bR)-8′-chloro-5′,5′-dimethyl-1-[(4-methyl-1H-imidazol-5-yl)methyl]-4′a,10′b-dihydro-2′H,4′H,5′H-spiro[piperidine-4,3′-pyrano[3,2-c][1]benzopyran] and (4′aS,10′bS)-8′-chloro-5′,5′-dimethyl-1-[(4-methyl-1H-imidazol-5-yl)methyl]-4′a,10′b-dihydro-2′H,4′H,5′H-spiro[piperidine-4,3′-pyrano[3,2-c][1]benzopyran]]",,,,20,0.6,30,,
< 10,Cc1nccn1CCN1CCC2(CC1)COC1c3ccc(Cl)cc3OC(C)(C)C1C2 (centres unmarked) [Example 51],,,potent activity,,,>90,0.9,good deviation
< 10,Cc1nccn1CCN1CCC2(CC1)COC1c3ccc(Cl)cc3OC(C)(C)C1C2 (centres unmarked) [Example 49],,,potent activity,,,>140,1.4,good deviation
< 10,CC1(C)Oc2ccc(Cl)cc2C2OCC3(CCN(CCn4ccnc4)CC3)CC21 (centres unmarked) [Example 40],,,potent activity,,,>140,1.4,good deviation
90,Cc1nccn1CC(=O)N1CCC2(CC1)COC1c3cc(Br)ccc3OC(C)(C)C1C2 (centres unmarked) [Example 7],,,,,,,< 0.3,
,"CC1(C)Oc2cc(Cl)ccc2C2OCC3(CCN(CCn4ccnc4)CC3)CC21 (racemic) [Example 38, Racemate of (4′aR,10′bR)-8′-chloro-1-[2-(1H-imidazol-1-yl)ethyl]-5′,5′-dimethyl-4′a,10′b-dihydro-2′H,4′H,5′H-spiro[piperidine-4,3′-pyrano[3,2-c][1]benzopyran] and (4′aS,10′bS)-8′-chloro-1-[2-(1H-imidazol-1-yl)ethyl]-5′,5′-dimethyl-4′a,10′b-dihydro-2′H,4′H,5′H-spiro[piperidine-4,3′-pyrano[3,2-c][1]benzopyran]]",,,,< 10,0.8,>80,,good deviation
810,CC1(C)Oc2ccc(Cl)cc2C2OCC3(CCN(Cc4c[nH]cn4)CC3)CC21 (centres unmarked) [Example 29],,,,,,3.21,2.6,
240,Cc1nccn1CC(=O)N1CCC2(CC1)COC1c3cc(N=[N+]=[N-])ccc3OC(C)(C)C1C2 (centres unmarked) [Example 10],,,,,,,< 0.3,
60,Cn1cncc1CN1CCC2(CC1)COC1c3cc(F)ccc3OC(C)(C)C1C2 (centres unmarked) [Example 31],,,,,,23.3,1.4,

SMILES,IC50 (HT-29 cells) [nM],IC50 (hERG [1]) [nM],hERG/HT-29 (hERG [1]),activity for inhibiting cell proliferation in the sphere culture condition (HT-29 cells),"IC50 (HT-29 cells; Homo sapiens, 96 h) [nM]",IC50 (hERG [2]) [µM],hERG/HT-29 (hERG [2]),IC50 (hERG [2]; [3]) [µM],deviation between the concentration of inhibiting 50% cell proliferation and the concentration of inhibiting 50% hERG current (hERG [2])
Cc1nc[nH]c1CN1CCC2(CC1)COC1c3cc(Cl)ccc3OC(C)(C)C1C2 (centres unmarked) [Example 24],90,,,,,,42.2,3.8,
Cn1cncc1CN1CCC2(CC1)COC1c3cccc(Cl)c3OC(C)(C)C1C2 (centres unmarked) [Example 34],< 10,,,potent activity,,,>140,1.4,good deviation
Cc1nc[nH]c1CN1CCC2(CC1)COC1c3cc(Cl)ccc3OC(C)(C)C1C2 (centres unmarked) [Example 26],< 10,,,potent activity,,,>60,0.6,good deviation
Cc1nccn1CCN1CCC2(CC1)COC1c3cc(Cl)ccc3OC(C)(C)C1C2 (centres unmarked) [Example 48],< 10,,,potent activity,,,>80,0.8,good deviation
Cc1nc[nH]c1CN1CCC2(CC1)COC1c3ccc(Cl)cc3OC(C)(C)C1C2 (centres unmarked) [Example 20],< 10,,,potent activity,,,>140,1.4,good deviation
Cc1nc[nH]c1CN1CCC2(CC1)COC1c3cc(Cl)ccc3OC(C)(C)C1C2 (centres unmarked) [Example 25],70,,,,,,5.7,0.4,
CC1(C)Oc2cc(Cl)ccc2C2OCC3(CCN(CCn4ccnc4)CC3)CC21 (centres unmarked) [Example 41],< 10,,,potent activity,,,>70,0.7,good deviation
Cc1nccn1CC(=O)N1CCC2(CC1)COC1c3cccc(Cl)c3OC(C)(C)C1C2 (centres unmarked) [Example 6],610,,,,,,,< 0.3,
CC1(C)Oc2ccc(F)cc2C2OCC3(CCN(CCn4ccnc4)CC3)CC21 (centres unmarked) [Example 39],< 10,,,potent activity,,,>100,1,good deviation
